Holding throughout (type): functional
In experiment [1] the test system is Breast cancer cell line. As to the kind of experiment: Compound was evaluated for its activity to inhibit growth of human breast cancer cell line.
Experiment [2] has as its system Leukemia cell. Put plainly: Compound was evaluated for its activity to inhibit growth of human leukemia cancer cell line.
The subject of experiment [3] is Micrococcus luteus. As to the kind of experiment: Compound was evaluated for the inhibition of growth of Micrococcus luteus; (12.5-25 ug/disk).
Experiment [4] deals with P388. Put plainly: Compound was evaluated for its activity to inhibit growth of murine P388 lymphocytic leukemia. The settings on record: Mus musculus, read-out: ED50 (the source's name).

SMILES strings stand for the structures. ≈ marks a conversion by molar mass, not a printed value.

With `O[C@@]12CCCCCC[C@H]3CCN4CCC[C@H](CCCCCC[C@H]5CCN(CCC1)[C@@H]2O5)[C@H]4O3` [XESTOSPONGIN D], the figures for the GI50 in experiment [1] and in experiment [2] were 4.53 µM and 3.62 µM, respectively. Also, the MIC in experiment [3] is listed as 25 ug disk-1. In addition, in experiment [4], the EC50 came to 1.7 µg/mL (≈ 3.67 µM).

Broadly, the GI50 is the concentration that inhibits growth by half. Read a low GI50 as greater sensitivity of the cells.

The record behind these values is ChEMBL document CHEMBL1150526, “Isolation and X-ray crystal structure of racemic Xestospongin D from the Singapore marine sponge Niphates sp1” (1996).
